Values of other authors, collected in patent US8759352B2, “1-(4-ureidobenzoyl)piperazine derivatives” (Merck Sharp & Dohme B.V., priority 2008, dated 2014).

Experiments:
neointima formation = conditions: in vitro and in vivo; Blaschke et al. 2004
β-amyloid = conditions: Riddell et al. 2007
[1] = test system: vascular smooth muscle cell; conditions: in vitro and in vivo; Blaschke et al. 2004
tumours = conditions: animal model of prostate cancer; Chuu et al. 2006

## O=S(=O)(c1ccccc1)N(CC(F)(F)F)c1ccc(C(O)(C(F)(F)F)C(F)(F)F)cc1 [Example T0901317]
Neointima formation
  neointima formation following balloon injury: inhibit
β-amyloid
  deposition of β-amyloid: lower deposition of β-amyloid
  memory: improve memory
[1]
  vascular smooth muscle cell proliferation: inhibit
tumours
  progression of tumours: delayed progression of tumours
